Read-outs that look alike come from different tables or passages of the source. No end group written: not given here.
T1: human TAS1R2-WT/TAS1R3-F749S (Homo sapiens, UniProt Q7RTX0+Q8TE23, F749S)
T1 construct: expressed in transfected cells; host or cells: HEK293T stably expressing Gα16gust44
T1 sequence (Q8TE23 20-839): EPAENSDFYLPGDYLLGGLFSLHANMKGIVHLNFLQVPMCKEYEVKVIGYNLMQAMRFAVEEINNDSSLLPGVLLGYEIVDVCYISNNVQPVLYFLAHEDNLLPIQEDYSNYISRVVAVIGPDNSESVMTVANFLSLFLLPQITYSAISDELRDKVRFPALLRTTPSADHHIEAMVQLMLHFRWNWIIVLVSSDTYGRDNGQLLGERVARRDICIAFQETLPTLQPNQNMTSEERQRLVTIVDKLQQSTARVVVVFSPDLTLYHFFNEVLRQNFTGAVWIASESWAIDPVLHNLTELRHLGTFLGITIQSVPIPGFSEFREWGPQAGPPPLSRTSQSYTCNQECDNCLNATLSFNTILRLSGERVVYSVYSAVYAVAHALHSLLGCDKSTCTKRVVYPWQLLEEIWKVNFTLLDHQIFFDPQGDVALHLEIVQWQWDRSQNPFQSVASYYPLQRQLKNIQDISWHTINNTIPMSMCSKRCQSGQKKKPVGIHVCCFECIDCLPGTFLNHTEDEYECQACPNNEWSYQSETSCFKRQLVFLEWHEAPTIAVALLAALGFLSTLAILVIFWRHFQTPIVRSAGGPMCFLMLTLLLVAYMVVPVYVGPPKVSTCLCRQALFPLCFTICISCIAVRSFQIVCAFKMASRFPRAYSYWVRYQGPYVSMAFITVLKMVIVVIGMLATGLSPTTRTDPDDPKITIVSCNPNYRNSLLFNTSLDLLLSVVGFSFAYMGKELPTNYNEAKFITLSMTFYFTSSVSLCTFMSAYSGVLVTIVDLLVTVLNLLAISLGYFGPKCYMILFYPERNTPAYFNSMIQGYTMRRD
T1 sequence (Q7RTX0 21-852 F749S): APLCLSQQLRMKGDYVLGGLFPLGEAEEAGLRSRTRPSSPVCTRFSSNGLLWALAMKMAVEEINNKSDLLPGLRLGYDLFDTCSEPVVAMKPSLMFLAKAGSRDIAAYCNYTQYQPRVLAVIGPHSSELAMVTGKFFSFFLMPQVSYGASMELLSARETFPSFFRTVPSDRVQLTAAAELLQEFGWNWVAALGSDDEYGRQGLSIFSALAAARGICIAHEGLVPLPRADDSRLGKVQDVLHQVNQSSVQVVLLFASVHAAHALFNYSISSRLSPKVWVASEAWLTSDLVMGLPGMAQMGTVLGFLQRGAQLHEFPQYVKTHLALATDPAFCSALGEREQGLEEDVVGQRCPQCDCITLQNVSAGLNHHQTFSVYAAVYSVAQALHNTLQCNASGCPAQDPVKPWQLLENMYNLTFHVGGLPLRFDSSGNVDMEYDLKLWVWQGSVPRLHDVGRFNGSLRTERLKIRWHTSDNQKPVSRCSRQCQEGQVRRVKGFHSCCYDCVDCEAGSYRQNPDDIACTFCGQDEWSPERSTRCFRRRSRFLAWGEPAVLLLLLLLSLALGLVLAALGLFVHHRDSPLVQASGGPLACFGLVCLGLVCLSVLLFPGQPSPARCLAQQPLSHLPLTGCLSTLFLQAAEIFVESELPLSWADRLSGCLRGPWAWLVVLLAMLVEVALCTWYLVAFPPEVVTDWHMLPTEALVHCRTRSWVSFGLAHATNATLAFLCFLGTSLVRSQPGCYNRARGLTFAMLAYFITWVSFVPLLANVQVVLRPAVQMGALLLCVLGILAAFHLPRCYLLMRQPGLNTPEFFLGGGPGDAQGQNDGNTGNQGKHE


Molecular target: T1, human TAS1R2-WT/TAS1R3-F749S
Assay: Calcium mobilisation assay, TAS1R2-WT with TAS1R3 variant F749S
Assay type: cell-based
Settings: for Max ΔF/F0: maximal signal amplitude
Description: The coding sequences for TAS1R2 and TAS1R3 were commercially synthesised, and the human codon was optimised for expression in human cells. The coding sequences of human TAS1R2 and TAS1R3 were subcloned and inserted into the mammalian expression vectors pcDNA6/myc-HisA and pcDNA4/myc-HisA (Invitrogen; Thermo Fisher Scientific; Illkirch, France) between the EcoRI and NotI restriction sites, generating the plasmids pcDNA6-TAS1R2 and pcDNA4-TAS1R3, respectively. To increase protein expression in mammalian cells, an upstream start codon was used, which was a sequence called MAX, corresponding to the QBI SP163 element also described in pcDNA4-HisMax (Invitrogen; Thermo Fisher Scientific; Illkirch, France). To measure the expression level of the receptor by immunohistochemistry, we used the FLAG sequence ([…]) in the C-terminal position, which encodes the FLAG tag epitope. SNP variants of TAS1R2 and TAS1R3 were constructed based on […], respectively, using site-directed mutagenesis (Genewiz; Leipzig, Germany).
The HEK293T cells were kindly provided by Jay P. Slack (Givaudan Flavors Corporation; Cincinnati, OH, USA). HEK293T cells stably transfected with Gα16gust44 [43, 67] were seeded in poly-D-lysine-coated clear-bottom black 96-well plates (0.35 × 10^5 cells/well) in high-glucose DMEM supplemented with 2 mM GlutaMAX, 10% dialysed foetal bovine serum with penicillin/streptomycin and G418 (400 μg/mL) at 37 °C and 6.3% CO2 in a humidified atmosphere as previously reported. […] As a negative control, HEK293T cells were mock-transfected with the empty expression vector. After a further 24 h of incubation, the HEK293T cells were washed with C1 buffer (130 mM NaCl, 5 mM KCl, 10 mM HEPES pH 7.4 and 2 mM CaCl2). The 96-well plates containing the cells were then stimulated with sweet-tasting compounds. […] Different concentration ranges were tested depending on the sweet compound injected. The Ca^2+ changes were expressed as fractional changes in fluorescent light intensity: ΔF/F = (F − F0)/F0, where F was the fluorescent light intensity at each point, and F0 was the value of emitted fluorescent light prior to stimulus application. To calculate dose–response relationships, the changes in fluorescence upon stimulus application were averaged, mock-subtracted and baseline-corrected. The dose–response data obtained were adjusted using a 4-parameter logistic equation. The half-maximal effective concentrations (EC50 values) and maximal signal amplitudes were calculated using SigmaPlot software (version 15.0) (Systat Software; San Jose, CA, USA).
For in vitro calcium mobilisation assay performed on hTAS1R2-SNPs, hTAS1R3-SNPs and mTAS1R3-I60T, 6 to 7 concentrations were tested for each sweet compound, plus buffer alone. All concentration–receptor combinations were measured in duplicate, and each experiment was repeated at least 4 times (8 wells/concentration). Results were expressed for each concentration as ΔF/F mean ± SEM and represented as dose–response curves.

Row | Molecule | R1 = Variant EC50/WT EC50 | Max ΔF/F0 | EC50 (read-out: EC50) [µM] | EC50 (brazzein) [µg/mL]
1 | CC1=CC(=O)NS(=O)(=O)O1 [Acesulfame K, acesulfame K] | 0.7 | 0.04 ± 0.01 | 410 ± 242 | 
2 | O=S(=O)(O)NC1CCCCC1 [Cyclamate, cyclamate] |  |  | 3430 ± 1990 | 
3 | C[C@H](CC[C@@H](O[C@@H]1O[C@H](CO[C@@H]2O[C@H](CO)[C@@H](O)[C@H](O)[C@H]2O)[C@@H](O)[C@H](O)[C@H]1O[C@@H]1O[C@H](CO)[C@@H](O)[C@H](O)[C@H]1O)C(C)(C)O)[C@H]1CC[C@@]2(C)[C@@H]3CC=C4[C@@H](CC[C@H](O[C@@H]5O[C@H](CO[C@@H]6O[C@H](CO)[C@@H](O)[C@H](O)[C@H]6O)[C@@H](O)[C@H](O)[C@H]5O)C4(C)C)[C@]3(C)[C@H](O)C[C@]12C [Mogroside V, mogroside V] | 2.1 | 0.47 ± 0.02 | 65.5 ± 5.4 | 
4 | COc1ccc(CCC(=O)c2c(O)cc(O[C@@H]3O[C@H](CO)[C@@H](O)[C@H](O)[C@H]3O[C@@H]3O[C@@H](C)[C@H](O)[C@@H](O)[C@H]3O)cc2O)cc1O [NHDC, neohesperidin dihydrochalcone] | 3.0 | 0.29 ± 0.01 | 150 ± 19.6 | 
5 | COC(=O)[C@H](Cc1ccccc1)NC(=O)[C@H](CC(=O)O)NCCC(C)(C)C [Neotame] | 1.5 | 0.22 ± 0.01 | 1.82 ± 0.12 | 
6 | C=C(C)[C@@H]1CC=C(/C=N/O)CC1 [Perillartine, perillartine] | 0.9 | 1.90 ± 0.30 | 12.1 ± 6.1 | 
7 | C=C1C[C@@]23CC[C@H]4[C@@](C)(CCC[C@@]4(C)C(=O)O[C@@H]4O[C@H](CO)[C@@H](O)[C@H](O[C@@H]5O[C@H](CO)[C@@H](O)[C@H](O)[C@H]5O)[C@H]4O[C@@H]4O[C@H](CO)[C@@H](O)[C@H](O)[C@H]4O)[C@@H]2CC[C@]1(O[C@@H]1O[C@H](CO)[C@@H](O)[C@H](O[C@@H]2O[C@H](CO)[C@@H](O)[C@H](O)[C@H]2O)[C@H]1O[C@@H]1O[C@H](CO)[C@@H](O)[C@H](O)[C@H]1O)C3 [Rebaudioside M, rebaudioside M] | 1.8 | 0.54 ± 0.03 | 71.8 ± 9.6 | 

The next lines start with the values.

Row | R1 = Variant EC50/WT EC50 | Max ΔF/F0 | EC50 (read-out: EC50) [µM] | EC50 (brazzein) [µg/mL] | Molecule
8 | 2.3 | 0.18 ± 0.01 | 252 ± 36 |  | OC[C@H]1O[C@H](O[C@]2(CCl)O[C@H](CCl)[C@@H](O)[C@@H]2O)[C@H](O)[C@@H](O)[C@H]1Cl [Sucralose]
9 | 1.9 | 0.65 ± 0.01 |  | 212.2 ± 8.6 | brazzein (QDKCKKVYENYPVSKCQLANQCNYDCKLDKHARSGECFYDEKRNLQCICDYCEY; ends and bridges not checked; cysteine pairing not given here; UniProt P56552 1-54, looked up) [sweet-tasting protein obtained by recombinant production using the yeast Pichia pastoris]
10 | 3.0 | 0.42 ± 0.03 |  |  | thaumatin
11 |  |  | 31.2 ± 3.5 |  | thaumatin (protein, Eight disulfides, sweet-tasting plant protein, E957) ATFEIVNRCSYTVWAAASKGDAALDAGGRQLNSGESWTINVEPGTKGGKIWARTDCYFDDSGSGICKTGDCGGLLRCKRFGRPPTTLAEFSLNQYGKDYIDISNIKGFNVPMDFSPTTRGCRGVRCAADIVGQCPAKLKAPGGGCNDACTVFQTSEYCCTTGKCGPTEYSRFFKRLCPDAFSYVLDKPTTVTCPGSSNYRVTFCPTA
